This experiment has as its system Candida albicans. As to the kind of experiment: Experiment A: activity against vaginal candidosis in rats. It is filed as in vivo, Female Wistar rats. The note with it: po, 336 h, orally once a day for two days starting from the day of infection, active at the 14th day after infection, read-out: Vaginal candidosis in rats: lowest effective dose in mg/kg orally. The procedure: Female Wistar rats of ±100 g body weight are used. They are ovariectomized and hysterectomized and after three weeks of recovery, 100 μg of oestradiol undecylate in sesame oil is given subcutaneously once a week for 3 consecutive weeks. The thus induced pseudo-oestrus is controlled by microscopic examination of vaginal smears. Food and water are left available ad libitum. The rats are infected intravaginally with 8.10^5 cells of Candida albicans, grown on Sabouraud broth for 48 hours at 37° C. and diluted with saline. The data of infection varies from day +25 to day +32 after surgical intervention, depending on the appearance of signs of induced pseudo-oestrus. The drugs under investigation are administered orally once a day for two days starting from the day of infection. For each experiment there are placebo treated controls. The results are assessed by taking vaginal smears with sterile swabs on several days after the infection. The swabs are put into Sabouraud broth in petri-dishes and incubated for 48 hours at 37° C. If no growth of Candida albicans occurs, i.e., when the animals are negative at the end of the experiment, this is due to drug administration because it never happens in placebo-treated controls. The table below gives the lowest oral dose of the drug under investigation which is found active at the 14th day after infection.

Structures are written as SMILES. Some results are limits rather than exact numbers.

Turning to `CCn1nc(C)n(-c2ccc(N3CCN(c4ccc(OC[C@H]5CO[C@](Cn6cncn6)(c6ccc(Cl)cc6Cl)O5)cc4)CC3)cc2)c1=O` (relative stereo), the minimal effective dose was under 0.63 mg/kg. As for `Clc1ccc([C@@]2(Cn3cncn3)OC[C@H](COc3ccc(N4CCN(c5ccc(-n6ccnc6)cc5)CC4)cc3)O2)c(Cl)c1` (relative stereo), the minimal effective dose amounted to 1.25 mg/kg. In the case of `CSc1ncn(-c2ccc(N3CCN(c4ccc(OC[C@H]5CO[C@](Cn6cncn6)(c6ccc(Cl)cc6Cl)O5)cc4)CC3)cc2)n1` (relative stereo), the minimal effective dose came out at 1.25 mg/kg. For `CSc1nncn1-c1ccc(N2CCN(c3ccc(OC[C@H]4CO[C@](Cn5cncn5)(c5ccc(Cl)cc5Cl)O4)cc3)CC2)cc1` (relative stereo), the minimal effective dose worked out at 2.5 mg/kg. On to `Clc1ccc([C@@]2(Cn3cncn3)OC[C@H](COc3ccc(N4CCN(c5ccc(-n6cnnn6)cc5)CC4)cc3)O2)c(Cl)c1` (relative stereo), for which the minimal effective dose is under 2.5 mg/kg. `Cc1nn(C)c(=O)n1-c1ccc(N2CCN(c3ccc(OC[C@H]4CO[C@](Cn5cncn5)(c5ccc(Cl)cc5Cl)O4)cc3)CC2)cc1` (relative stereo): the minimal effective dose is at most 0.63 mg/kg. `CCCn1nc(C)n(-c2ccc(N3CCN(c4ccc(OC[C@H]5CO[C@](Cn6ccnc6)(c6ccc(Cl)cc6Cl)O5)cc4)CC3)cc2)c1=O` (relative stereo): the minimal effective dose is 0.63 mg/kg. Regarding `Cc1ncnn1-c1ccc(N2CCN(c3ccc(OC[C@H]4CO[C@](Cn5cncn5)(c5ccc(Cl)cc5Cl)O4)cc3)CC2)cc1` (relative stereo), the minimal effective dose came out at 0.63 mg/kg. For the compound `Cn1ncn(-c2ccc(N3CCN(c4ccc(OC[C@H]5CO[C@](Cn6cncn6)(c6ccc(Cl)cc6Cl)O5)cc4)CC3)cc2)c1=O` (relative stereo), the minimal effective dose was at least 0.63 mg/kg. For `CCn1ncn(-c2ccc(N3CCN(c4ccc(OC[C@H]5CO[C@](Cn6ccnc6)(c6ccc(Cl)cc6Cl)O5)cc4)CC3)cc2)c1=O` (relative stereo), the minimal effective dose stood at 1.25 mg/kg.

Regarding `Clc1ccc([C@@]2(Cn3ccnc3)OC[C@H](COc3ccc(N4CCN(c5ccc(-n6cccn6)cc5)CC4)cc3)O2)c(Cl)c1` (relative stereo), the minimal effective dose turned out to be 2.5 mg/kg.

For the compound `Clc1ccc([C@@]2(Cn3ccnc3)OC[C@H](COc3ccc(N4CCN(c5ccc(-n6cncn6)cc5)CC4)cc3)O2)c(Cl)c1` (relative stereo), the minimal effective dose was 0.63 mg/kg. In the case of `CCn1nc(C)n(-c2ccc(N3CCN(c4ccc(OC[C@H]5CO[C@](Cn6ccnc6)(c6ccc(Cl)cc6Cl)O5)cc4)CC3)cc2)c1=O` (relative stereo) it was 1.25 mg/kg; in that of `Clc1ccc([C@@]2(Cn3cncn3)OC[C@H](COc3ccc(N4CCN(c5ccc(-n6cccn6)cc5)CC4)cc3)O2)c(Cl)c1` (relative stereo), 2.5 mg/kg. On to `CCCn1nc(C)n(-c2ccc(N3CCN(c4ccc(OC[C@H]5CO[C@](Cn6cncn6)(c6ccc(Cl)cc6Cl)O5)cc4)CC3)cc2)c1=O` (relative stereo), for which the minimal effective dose worked out at 0.5 mg/kg. With `CSc1ncn(-c2ccc(N3CCN(c4ccc(OC[C@H]5CO[C@](Cn6ccnc6)(c6ccc(Cl)cc6Cl)O5)cc4)CC3)cc2)n1` (relative stereo), the minimal effective dose amounted to 2.5 mg/kg. `CSc1nc(C)n(-c2ccc(N3CCN(c4ccc(OC[C@H]5CO[C@](Cn6ccnc6)(c6ccc(Cl)cc6Cl)O5)cc4)CC3)cc2)n1` (relative stereo): the minimal effective dose is 2.5 mg/kg. Under `Clc1ccc([C@@]2(Cn3ccnc3)OC[C@H](COc3ccc(N4CCN(c5ccc(-n6ccnc6)cc5)CC4)cc3)O2)c(Cl)c1` (relative stereo) stands 1.25 mg/kg. `Clc1ccc([C@@]2(Cn3cncn3)OC[C@H](COc3ccc(N4CCN(c5ccc(-n6cncn6)cc5)CC4)cc3)O2)c(Cl)c1` (relative stereo): the minimal effective dose is 0.63 mg/kg. For `CSc1nc(C)n(-c2ccc(N3CCN(c4ccc(OC[C@H]5CO[C@](Cn6cncn6)(c6ccc(Cl)cc6Cl)O5)cc4)CC3)cc2)n1` (relative stereo), the minimal effective dose was at most 0.63 mg/kg. Under `CSc1nnc(C)n1-c1ccc(N2CCN(c3ccc(OC[C@H]4CO[C@](Cn5cncn5)(c5ccc(Cl)cc5Cl)O4)cc3)CC2)cc1` (relative stereo) stands 2.5 mg/kg; under `CCn1ncn(-c2ccc(N3CCN(c4ccc(OC[C@H]5CO[C@](Cn6cncn6)(c6ccc(Cl)cc6Cl)O5)cc4)CC3)cc2)c1=O` (relative stereo), at least 0.16 mg/kg; under `Cc1nn(C)c(=O)n1-c1ccc(N2CCN(c3ccc(OC[C@H]4CO[C@](Cn5ccnc5)(c5ccc(Cl)cc5Cl)O4)cc3)CC2)cc1` (relative stereo), 0.63 mg/kg.

Take `Cn1ncn(-c2ccc(N3CCN(c4ccc(OC[C@H]5CO[C@](Cn6ccnc6)(c6ccc(Cl)cc6Cl)O5)cc4)CC3)cc2)c1=O` (relative stereo): the minimal effective dose came to 1 mg/kg.

For the origin of these results see patent US4368200A, “Heterocyclic derivatives of (4-phenyl-piperazine-1-yl-aryloxymethyl-1,3-dioxolan-2-yl)-methyl-1H-imi dazoles and 1H-1,2,4-triazoles” (Janssen Pharmaceutica N.V., priority 1981, dated 1983).
